Experimental data as given in US20120040974A1, “MIF MODULATORS” (YALE UNIVERSITY, priority 2008, published 2012).
Like-named read-outs stand apart in the source and are kept apart here. One block for each compound: values may come before it.

Experiments:
[1] = biological target: T1, Human MIF tautomerase activity (HPP) (Homo sapiens, UniProt P14174); experiment: HPP tautomerase assay; format: biochemical; settings: for Emax: read-out: HPP Max. Inhib.
T1 construct: made in house
T1 sequence (P14174 2-115 limits assumed): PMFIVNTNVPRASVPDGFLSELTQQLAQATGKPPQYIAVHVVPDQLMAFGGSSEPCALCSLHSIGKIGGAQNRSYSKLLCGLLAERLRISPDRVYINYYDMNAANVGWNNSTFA

[2] = biological target: T2, MIF-CD74 binding (biotinylated recombinant human MIF / immobilized CD74 ectodomain) (Homo sapiens, UniProt P14174); experiment: MIF-CD74 binding (capture) assay; settings: for IC50: Table 1, benzooxazolones B, inhibition of MIF-CD74 binding; for Capture % Max. Inhib.: Table 3, benzothiazolones, capture assay
T2 sequence (P14174 2-115 limits assumed): T1 sequence (P14174 2-115 limits assumed)

[3] = tested on: MIF-dependent ERK1/2 phosphorylation; experiment: MIF-dependent signal transduction in cells (ERK1/2 phosphorylation); format: cell-based; settings: compared to isoxazoline-1
Description: Two additional assays were performed on compounds according to the present invention. In the first, MIF-dependent signal transduction in cells as evidenced by a reduction in ERK1/2 phosphorylation and its inhibitory action is compared to the known small molecule MIF antagonist, isoxazoline-1 following the assay reported in Leng L., Metz C, Fang Y, Xu J, Donnelly S, Baugh J, Delonery T, Chen Y, Mitchell R A, and Bucala R. 2003. MIF Signal Transduction Initiated by Binding to CD74. J Exp Med 197, 1467-1476.

ovarian cancer cell line = experiment: Growth inhibition of an ovarian cancer cell line; format: cell-based
Excerpt: KSP inhibitor ARRY-520 is used as a substitute for Paclitaxel in Type I ovarian cancer cells. J Transl Med. 7:63.

[4] = Table 1, MIF tautomerase activity, HPP substrate

IC50 [1, 4]: 0.5 µM
SMILES: Cc1ccc2oc(=O)n(Cc3ccccc3)c2c1 [Compound 1]

IC50 [2]: 200 µM
SMILES: COc1cccc(Cn2c(=O)oc3ccc(OC)cc32)c1 [Compound 3, 5-methoxy-3-(3-methoxy-benzyl)-3H-benzooxazol-2-one]

IC50 [2]: 500 µM
SMILES: COc1cccc(Cn2c(=O)oc3ccc(CO)cc32)c1 [Compound 4, 5-hydroxymethyl-3-(3-methoxy-benzyl)-3H-benzooxazol-2-one]

activity in the capture assay (MIF-CD74 binding), in words [2]: inactive
IC50 [2]: > 10000 µM
SMILES: Ic1cc(-c2ccccc2)ncn1 [Compound 4-IPP, 4-iodo-6-phenylpyrimidine, reference compound]

IC50 [2]: 300 µM
SMILES: COc1cccc(Cn2c(=O)oc3ccc(C)cc32)c1 [Compound 5]

IC50 [1, 4]: 1 µM
SMILES: O=c1oc2ccc(F)cc2n1Cc1ccccc1 [Compound 8]

Emax ([1]; Table 1, maximal inhibition of HPP tautomerase activity): 17%
SMILES: COc1ccccc1Cn1c(=O)oc2ccc(F)cc21 [Compound 10]

IC50 [2]: > 1000 µM
SMILES: O=c1oc2cc(O)ccc2n1Cc1ccccc1 [Compound 14]

Emax ([1]; Table 2, other series): 40%
SMILES: c1ccc(Cn2c(-c3cscn3)nc3ccccc32)cc1 [Compound 17, 4-(1-benzyl-1H-benzo[d]imidazol-2-yl)thiazole]

Emax ([1]; Table 2, other series): 36%
SMILES: N#Cc1nc2ccccc2n1Cc1ccccc1 [Compound 18, 1-Benzyl-1H-benzoimidazole-2-carbonitrile]

IC50 ([1]; Table 2, other series): 510 µM
SMILES: O=C(c1cc2ccccc2o1)c1cc2ccccc2o1 [Compound 20, bisbenzofuran-2-yl methanone]

activity in the capture assay (MIF-CD74 binding), in words [2]: agonist behavior
SMILES: O=c1c2ccc(F)cc2sn1-c1ccc(Cl)cc1 [Compound 25]

Capture % Max. Inhib. [2]: 8%
IC50 ([1]; Table 3, benzothiazolones): 4.8 µM
SMILES: O=c1c2ccc(F)cc2sn1-c1cccc(CO)c1 [Compound 29]

Capture % Max. Inhib. [2]: 7%
IC50 ([1]; Table 3, benzothiazolones): 2.8 µM
SMILES: O=c1c2cc(F)ccc2sn1-c1ccc(Cl)cc1 [Compound 30]

SMILES: COc1ccccc1-n1sc2ccc(Cl)cc2c1=O [Compound 31]
Capture % Max. Inhib. [2]: 7%

SMILES: O=c1c2cc(F)ccc2sn1-c1cccc(O)c1 [Compound 32]
Capture % Max. Inhib. [2]: 13%

SMILES: CC(=O)OCc1cccc(-n2sc3cc(F)ccc3c2=O)c1 [Compound 33]
Capture % Max. Inhib. [2]: 12%

SMILES: O=c1c2cc([N+](=O)[O-])ccc2sn1-c1ccc(Cl)cc1 [Compound 34]
Capture % Max. Inhib. [2]: 11%

Capture % Max. Inhib. [2]: 12%
IC50 ([1]; Table 3, benzothiazolones): 8.5 µM
SMILES: O=c1c2cc(C(F)(F)F)ccc2sn1-c1ccc(Cl)cc1 [Compound 35]

SMILES: O=c1c2ccc(Br)cc2sn1-c1ccc(Cl)cc1 [Compound 36]
Capture % Max. Inhib. [2]: 10%

SMILES: N#Cc1ccc2c(=O)n(-c3ccc(Cl)cc3)sc2c1 [Compound 37]
Capture % Max. Inhib. [2]: 16%

SMILES: Cc1ccc2oc(=O)n(Cc3cccc(O)c3)c2c1 [Compound 098]
inhibition of MIF-dependent signal transduction (reduction in ERK1/2 phosphorylation), in words [3]: significant inhibitory action
inhibition of growth of an ovarian cancer cell line, in words (ovarian cancer cell line): significant inhibitory action

activity in the capture assay (MIF-CD74 binding), in words [2]: inactive
activity in the HPP tautomerase assay, in words [1]: inactive
SMILES: COC(=O)CC1CC(c2ccc(O)cc2)=NO1 (centres unmarked) [ISO-1, reference compound]
